# Measured values from patent US11072575B1, “Method of preparing a cinnamyl alcohol retinoic acid ester with antioxidant and antibacterial activities” (priority 2020, dated 2021).
# Assays:
# [1] = test system: Multi-resistant Pseudomonas aeruginosa 18-202; assay: Paper diffusion drug sensitivity test, multi-resistant Pseudomonas aeruginosa 18-202; details: for Zone of inhibition: drug sensitive paper 6.35 mm, test drugs 30 μg/tablet, 37° C. 24 h; for Antibacterial effect (in words): summary of Table 4
# [2] = test system: Multi-resistant Staphylococcus aureus 18-596; assay: Paper diffusion drug sensitivity test, multi-resistant Staphylococcus aureus 18-596; details: for Zone of inhibition: drug sensitive paper 6.35 mm, test drugs 30 μg/tablet, 37° C. 24 h; for Antibacterial effect (in words): summary of Table 4
# [3] = DPPH radical scavenging activity assay; details: for DPPH clearance rate: 30 min, 517 nm, n = 3
# Description: In the DPPH molecule, due to the presence of multiple electron-withdrawing —NO2 and large π bonds of the benzene ring, nitrogen free radical is stabilized. Its methanol solution is purple and has a maximum absorption peak at 517 nm. After the addition of an antioxidant, DPPH captures an electron to be paired with the free electron, and the purple fades and turns into a yellow substance. The absorption at 517 nm disappears, and the degree of fading is quantitatively related to the number of electrons it captures. Based on this principle, a spectrophotometer is used to detect the change of the absorbance of the DPPH radical and the sample solution, and the ability of the sample to provide hydrogen atoms and scavenge free radicals can be measured. […] Vc (positive control), cinnamyl alcohol retinoic acid ester (sample), cinnamyl alcohol (control) and retinoic acid (control). The sample solution was subjected to gradient dilution with toluene, and three sets of controls were separately dissolved in a test tube with a certain amount of toluene to prepare the same concentration gradient as the sample. [table] […] Clearance calculation: Clearance Rate (%)=[1−(Ai−Aj)/Ao]*100%
Compound,Zone of inhibition [1],Zone of inhibition [2],DPPH clearance rate ([3]; 1.76 ppm in toluene),DPPH clearance rate ([3]; 8.80 ppm in toluene),DPPH clearance rate ([3]; 21.12 ppm in toluene),DPPH clearance rate ([3]; 42.24 ppm in toluene),DPPH clearance rate ([3]; 79.20 ppm in toluene),DPPH clearance rate ([3]; 112.64 ppm in toluene),DPPH clearance rate ([3]; 281.60 ppm in toluene),DPPH clearance rate ([3]; 492.80 ppm in toluene),DPPH clearance rate ([3]; 792.00 ppm in toluene),DPPH clearance rate ([3]; 915.20 ppm in toluene),Antibacterial effect (in words) [1],Antibacterial effect (in words) [2],Antioxidant activity (in words) ([3]; summary)
Gentamicin,21 mm,10 mm,,,,,,,,,,,,,
"CC1=C(/C=C/C(C)=C/C=C/C(C)=C/C(=O)O)C(C)(C)CCC1 [Retinoic acid, retinoic acid]",7 mm,8 mm,,,,,,,,,,,,,
CN[C@H](CC(C)C)C(=O)N[C@H]1C(=O)N[C@@H](CC(N)=O)C(=O)N[C@H]2C(=O)N[C@H]3C(=O)N[C@H](C(=O)N[C@H](C(=O)O)c4cc(O)cc(O)c4-c4cc3ccc4O)[C@H](O)c3ccc(c(Cl)c3)Oc3cc2cc(c3O[C@@H]2O[C@H](CO)[C@@H](O)[C@H](O)[C@H]2O[C@H]2C[C@](C)(N)[C@H](O)[C@H](C)O2)Oc2ccc(cc2Cl)[C@H]1O [Vancomycin],9 mm,21 mm,,,,,,,,,,,,,
O=C1O[C@H]([C@@H](O)CO)C(O)=C1O [Vc],,,23.16%,33.47%,79.63%,89.55%,97.42%,97.53%,98.29%,99.06%,99.10%,99.28%,,,
"OCC=Cc1ccccc1 [Cinnamyl alcohol, cinnamyl alcohol]",6 mm,14 mm,6.89%,7.95%,17.86%,25.71%,37.96%,44.56%,59.23%,64.94%,73.54%,75.82%,little inhibitory effect,little inhibitory effect,
"CC1=C(/C=C/C(C)=C/C=C/C(C)=C/C(=O)OC/C=C/c2ccccc2)C(C)(C)CCC1 [Cinnamyl alcohol retinoic acid ester, (2E,4E,6E,8E)-cinnamyl 3,7-dimethyl-9-(2,6,6-trimethylcyclohex-1-en-1-yl)nona-2,4,6,8-tetraenoate]",21 mm,20 mm,13.16%,17.53%,31.95%,42.08%,68.62%,75.46%,79.44%,83.15%,90.77%,95.43%,strong resistance,strong resistance,excellent antioxidant activity
